In US20200405752A1, “ANTITUMOR AGENT, ANTITUMOR EFFECT ENHANCER, AND ANTITUMOR KIT” (FUJIFILM Corporation, priority 2018, published 2020):

System: human ovarian cancer cell line ES-2
Test: Cell viability (CellTiter Glo) of ES-2 in combination with cisplatin or carboplatin
Assay type: cell-based
Conditions: for CI: ES-2 Cell; for viability at 0.001 µM / viability at 0.003 µM / viability at 0.01 µM / viability at 0.03 µM / viability at 0.1 µM / viability at 0.3 µM / viability at 1 µM / viability at 3 µM / viability at 10 µM / IC50: Homo sapiens; for viability at 0.001 µM / viability at 0.003 µM / viability at 0.01 µM / viability at 0.03 µM / viability at 0.1 µM / viability at 0.3 µM / viability at 1 µM / viability at 3 µM / viability at 10 µM: 72 h, 3 days; for viability at 0.001 µM: test substance 1 nM; for viability at 0.003 µM: test substance 3 nM; for viability at 0.01 µM: test substance 10 nM; for viability at 0.03 µM: test substance 30 nM; for viability at 0.1 µM: test substance 100 nM; for viability at 0.3 µM: test substance 300 nM; for viability at 1 µM: test substance 1000 nM; for viability at 3 µM: test substance 3000 nM; for viability at 10 µM: test substance 10000 nM
Text: On the combinational effect of the embodiment of the invention, the results of evaluation using a combination index (CI) which is a quantitative index of the combinational effect are shown. The CI can be calculated by the following equation according to Cancer Research, 2010, Vol. 70, pp. 440 to 446.
That is, in a case where the drugs to be used in combination are drug 1 and drug 2, the CI at a certain drug concentration is
CI={(cell viability in case of using drug 1 and drug 2 in combination)/100}/{[(cell viability in case of using drug 1)/100]×[(cell viability in case of using drug 2)/100]}
Evaluation of antitumor activity against human ovarian cancer cell lines ES-2 and SK-OV-3 in combination with cisplatin and carboplatin
Furthermore, the antitumor activity against human ovarian cancer-derived cell lines ES-2 and SK-OV-3 in combination with cisplatin and carboplatin was evaluated in the same manner as in Test Example 1.
Gemcitabine, cisplatin, carboplatin, and methanesulfonate of Compound A were used as test substances.
Gemcitabine hydrochloride (manufactured by Plantex Co., Ltd.) dissolved in DMSO was used as gemcitabine. Cisplatin (Cat. #039-20091, manufactured by Wako Pure Chemical Industries, Ltd.) and carboplatin (Cat. #C2043, manufactured by Tokyo Chemical Industry Co., Ltd.), each of which dissolved in McCoy's 5a medium (Cat. #16600-082, manufactured by Thermo Fisher Scientific Inc.) supplemented with 1% serum (Cat. #10437-028, manufactured by Thermo Fisher Scientific Inc.), were used as cisplatin and carboplatin, respectively.
Human ovarian cancer cell line ES-2 and SK-OV-3 cells were subcultured in 10% serum-supplemented medium. During this test, all cell cultures were carried out in a CO2 incubator (set to 37° C. and 5% CO2, saturated with water vapor). ES-2 cells were diluted with 10% serum-supplemented medium to a cell density of 10000 cells/well/100 μL and SK-OV-3 cells were diluted with 10% serum-supplemented medium to a cell density of 15000 cells/well/100 μL, and then seeded on a 96-well plate. On the next day, the culture supernatant of each well was discarded, followed by washing twice with 150 μL of 1% serum-supplemented medium, and 100 μL of 1% serum-supplemented medium was added thereto, followed by culturing for 3 days.
The methanesulfonate of Compound A and gemcitabine were dissolved in DMSO to prepare 100 mmol/L DMSO solutions thereof. The thus-prepared DMSO solutions were diluted sequentially with DMSO to prepare DMSO solutions having a final treatment concentration of 1000-fold dilution. Cisplatin and carboplatin were dissolved in 1% serum-supplemented medium to prepare a cisplatin solution 60 μmol/L and a carboplatin solution 600 μmol/L, respectively. The DMSO diluted solutions of Compound A and gemcitabine were diluted with the cisplatin solution (60 μmol/L) or the Carboplatin solution (600 μmol/L) to prepare treatment liquids having a final treatment concentration of 6-fold dilution. Compound A and gemcitabine were used with a maximum concentration of 10 μmol/L at a common ratio of 1/3 and 9 concentrations in combination with cisplatin or Carboplatin.
20 μL of Compound A or gemcitabine diluted with the cisplatin solution (60 μmol/L) or the Carboplatin solution (600 μmol/L) was added to each well. In addition, a group in which only a solvent containing no drug was added to wells in which cells were seeded (positive control), and a group in which only a solvent containing no drug was added to wells containing only a medium (negative control) were provided. All groups were set to n=3 well.
The cells were cultured for 3 days after the addition of the drug, and the cell viability was evaluated using a CellTiter Glo (registered trademark) Reagent (Cat. #G7570, manufactured by Promega Corporation) with the intracellular ATP level as an index. […]

[1] = ES-2, used in combination with cisplatin (10 μmol/L, Table 3)
[2] = ES-2, with carboplatin 100 μmol/L
[3] = ES-2, used in combination with carboplatin (100 μmol/L, Table 6)

SMILES | CI (combination with Carboplatin) | CI (combination with Cisplatin) | viability at 0.001 µM [2] | viability at 0.003 µM [2] | viability at 0.01 µM [2] | viability at 0.03 µM [2] | viability at 0.1 µM [2] | viability at 0.3 µM [2] | viability at 1 µM [2] | viability at 3 µM [2] | viability at 10 µM [2] | viability at 0.001 µM (ES-2, with cisplatin 10 μmol/L) | viability at 0.003 µM (ES-2, with cisplatin 10 μmol/L) | viability at 0.01 µM (ES-2, with cisplatin 10 μmol/L) | viability at 0.03 µM (ES-2, with cisplatin 10 μmol/L) | viability at 0.1 µM (ES-2, with cisplatin 10 μmol/L) | viability at 0.3 µM (ES-2, with cisplatin 10 μmol/L) | viability at 1 µM (ES-2, with cisplatin 10 μmol/L) | viability at 3 µM (ES-2, with cisplatin 10 μmol/L) | viability at 10 µM (ES-2, with cisplatin 10 μmol/L) | other results
Nc1ccn([C@@H]2O[C@H](CO)[C@@H](O)C2(F)F)c(=O)n1 [Gemcitabine] | 0.9 | 1.1 | 76% | 74% | 71% | 71% | 72% | 71% | 69% | 62% | 48% | 74% | 78% | 78% | 79% | 79% | 79% | 74% | 65% | 50% | IC50 value [1]: could not be calculated; IC50 [3]: ≥ 10000 nM
Nc1ccn([C@@H]2S[C@H](CO)[C@@H](O)[C@@H]2F)c(=O)n1 [Compound A, 1-(2-deoxy-2-fluoro-4-thio-β-D-arabinofuranosyl)cytosine] | 0.4 | 0.3 | 73% | 70% | 69% | 57% | 36% | 28% | 24% | 22% | 21% | 78% | 78% | 77% | 68% | 37% | 26% | 23% | 23% | 21% | IC50 [3]: 46 nM; IC50 [1]: 63.2 nM
